Assay: xn = mol fraction of the nth substance listed
Details: 298.15 K, 101 kPa

CC(=O)[O-].CC[NH2+]CC + O
Details	electrical conductivity [S/m]	viscosity [mPa·s]
x1 = 0.0079	1.4	–
x1 = 0.0285	2.35	–
x1 = 0.0365	2.46	–
x1 = 0.0444	2.49	–
x1 = 0.0602	2.47	–
x1 = 0.0777	2.33	–
x1 = 0.098	–	5.81
x1 = 0.298	–	26.8
x1 = 0.2995	0.965	–
x1 = 0.3994	0.669	–
x1 = 0.403	–	40.7
x1 = 0.4992	0.525	–
x1 = 0.501	–	48.1
x1 = 0.597	–	53.1
x1 = 0.599	0.407	–
x1 = 0.662	–	54.6
x1 = 0.794	0.308	–
x1 = 0.805	–	55.7
x1 = 0.8986	0.282	–
x2 = 0.0048	0.262	–

Source: a compilation of properties of binary mixtures (doi:10.1016/j.molliq.2015.11.008)
